Reference: PubChem BioAssay (NCI)
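Here, GI50 denotes the concentration required for 50% inhibition of growth. TGI marks complete inhibition of growth.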

Key:
Assay in all cases: growth of human tumour cells (NCI), 384-well format
786-0 renal = test system: 786-0 renal
A498 renal = test system: A498 renal
A549 NSCLC = test system: A549 NSCLC
ACHN renal = test system: ACHN renal
BT-549 breast = test system: BT-549 breast
CAKI-1 renal = test system: CAKI-1 renal
CCRF-CEM leukemia = test system: CCRF-CEM leukemia
COLO 205 colon = test system: COLO 205 colon
DU-145 prostate = test system: DU-145 prostate
EKVX NSCLC = test system: EKVX NSCLC
HCC-2998 colon = test system: HCC-2998 colon
HCT-116 colon = test system: HCT-116 colon
HCT-15 colon = test system: HCT-15 colon
HOP-62 NSCLC = test system: HOP-62 NSCLC
HOP-92 NSCLC = test system: HOP-92 NSCLC
HS 578T breast = test system: HS 578T breast
HT29 colon = test system: HT29 colon
IGROV1 ovarian = test system: IGROV1 ovarian
K-562 leukemia = test system: K-562 leukemia
KM12 colon = test system: KM12 colon
LOX IMVI melanoma = test system: LOX IMVI melanoma
M14 melanoma = test system: M14 melanoma
MALME-3M melanoma = test system: MALME-3M melanoma
MCF7 breast = test system: MCF7 breast
MDA-MB-231 breast = test system: MDA-MB-231 breast
MDA-MB-435 melanoma = test system: MDA-MB-435 melanoma
MDA-MB-468 breast = test system: MDA-MB-468 breast
MOLT-4 leukemia = test system: MOLT-4 leukemia
NCI-H226 lung = test system: NCI-H226 lung
NCI-H23 lung = test system: NCI-H23 lung
NCI-H322M lung = test system: NCI-H322M lung
NCI-H460 NSCLC = test system: NCI-H460 NSCLC
NCI-H522 lung = test system: NCI-H522 lung
NCI/ADR-RES ovarian = test system: NCI/ADR-RES ovarian
OVCAR-3 ovarian = test system: OVCAR-3 ovarian
OVCAR-4 ovarian = test system: OVCAR-4 ovarian
OVCAR-5 ovarian = test system: OVCAR-5 ovarian
OVCAR-8 ovarian = test system: OVCAR-8 ovarian
PC-3 prostate = test system: PC-3 prostate
RPMI-8226 leukemia = test system: RPMI-8226 leukemia
RXF 393 renal = test system: RXF 393 renal
SF-268 CNS = test system: SF-268 CNS
SF-295 CNS = test system: SF-295 CNS
SF-539 CNS = test system: SF-539 CNS
SK-MEL-28 melanoma = test system: SK-MEL-28 melanoma
SK-MEL-5 melanoma = test system: SK-MEL-5 melanoma
SK-OV-3 ovarian = test system: SK-OV-3 ovarian
SN12C renal = test system: SN12C renal
SNB-19 CNS = test system: SNB-19 CNS
SNB-75 CNS = test system: SNB-75 CNS
SW-620 colon = test system: SW-620 colon
T-47D breast = test system: T-47D breast
TK-10 renal = test system: TK-10 renal
U251 glioblastoma = test system: U251 glioblastoma
UACC-257 melanoma = test system: UACC-257 melanoma
UACC-62 melanoma = test system: UACC-62 melanoma
UO-31 renal = test system: UO-31 renal

Structure (SMILES): Cn1c(=O)c(F)c(Nc2ccc(I)cc2F)c2c(=O)n(C[C@@H](O)CO)cnc21
- GI50 ([…]-0 renal): 1.62 µM
- TGI (786-0 renal): 17.9 µM
- GI50 (A498 renal): 0.268 µM
- TGI (A498 renal): 12.6 µM
- GI50 (A549 NSCLC): < 0.01 µM
- TGI (A549 NSCLC): 9.91 µM
- GI50 (ACHN renal): 1.09 µM
- TGI (ACHN renal): 26.9 µM
- GI50 (BT-549 breast): 2.39 µM
- TGI (BT-549 breast): 23.5 µM
- GI50 (CAKI-1 renal): 0.0133 µM
- TGI (CAKI-1 renal): 19.2 µM
- GI50 (CCRF-CEM leukemia): 10.6 µM
- TGI (CCRF-CEM leukemia): 22.8 µM
- GI50 (COLO 205 colon): < 0.01 µM
- TGI (COLO 205 colon): < 0.01 µM
- GI50 (DU-145 prostate): 1.99 µM
- TGI (DU-145 prostate): 36.7 µM
- GI50 (EKVX NSCLC): 2.08 µM
- TGI (EKVX NSCLC): 25.5 µM
- GI50 (HCC-2998 colon): < 0.01 µM
- TGI (HCC-2998 colon): 0.0128 µM
- GI50 (HCT-116 colon): < 0.01 µM
- TGI (HCT-116 colon): 0.164 µM
- GI50 (HCT-15 colon): 0.466 µM
- TGI (HCT-15 colon): 19.6 µM
- GI50 (HOP-62 NSCLC): < 0.01 µM
- TGI (HOP-62 NSCLC): 25.2 µM
- GI50 (HOP-92 NSCLC): < 0.01 µM
- TGI (HOP-92 NSCLC): 0.179 µM
- GI50 (HS 578T breast): 0.184 µM
- TGI (HS 578T breast): 11 µM
- GI50 (HT29 colon): < 0.01 µM
- TGI (HT29 colon): 11.6 µM
- GI50 (IGROV1 ovarian): < 0.01 µM
- TGI (IGROV1 ovarian): 1.11 µM
- GI50 (K-562 leukemia): 0.011 µM
- TGI (K-562 leukemia): 15.5 µM
- GI50 (KM12 colon): < 0.01 µM
- TGI (KM12 colon): 13.6 µM
- GI50 (LOX IMVI melanoma): < 0.01 µM
- TGI (LOX IMVI melanoma): 0.137 µM
- GI50 (M14 melanoma): < 0.01 µM
- TGI (M14 melanoma): < 0.01 µM
- GI50 (MALME-3M melanoma): < 0.01 µM
- TGI (MALME-3M melanoma): < 0.01 µM
- GI50 (MCF7 breast): 12.4 µM
- TGI (MCF7 breast): 29 µM
- GI50 (MDA-MB-231 breast): < 0.01 µM
- TGI (MDA-MB-231 breast): 1.11 µM
- GI50 (MDA-MB-435 melanoma): < 0.01 µM
- TGI (MDA-MB-435 melanoma): 19.9 µM
- GI50 (MDA-MB-468 breast): 0.387 µM
- TGI (MDA-MB-468 breast): 1.62 µM
- GI50 (MOLT-4 leukemia): 4.01 µM
- TGI (MOLT-4 leukemia): 16.3 µM
- GI50 (NCI-H226 lung): < 0.01 µM
- TGI (NCI-H226 lung): 5.39 µM
- GI50 (NCI-H23 lung): < 0.01 µM
- TGI (NCI-H23 lung): 0.0296 µM
- GI50 (NCI-H322M lung): 0.0185 µM
- TGI (NCI-H322M lung): 16.6 µM
- GI50 (NCI-H460 NSCLC): < 0.01 µM
- TGI (NCI-H460 NSCLC): 30.6 µM
- GI50 (NCI-H522 lung): 0.929 µM
- TGI (NCI-H522 lung): 22.7 µM
- GI50 (NCI/ADR-RES ovarian): 12.7 µM
- TGI (NCI/ADR-RES ovarian): 44.6 µM
- GI50 (OVCAR-3 ovarian): 4.32 µM
- TGI (OVCAR-3 ovarian): 19.2 µM
- GI50 (OVCAR-4 ovarian): 15.6 µM
- TGI (OVCAR-4 ovarian): 55.8 µM
- GI50 (OVCAR-5 ovarian): < 0.01 µM
- TGI (OVCAR-5 ovarian): 16.9 µM
- GI50 (OVCAR-8 ovarian): 3.68 µM
- TGI (OVCAR-8 ovarian): 18.6 µM
- GI50 (PC-3 prostate): 18.5 µM
- TGI (PC-3 prostate): 53.2 µM
- GI50 (RPMI-8226 leukemia): 11.6 µM
- TGI (RPMI-8226 leukemia): 24.8 µM
- GI50 (RXF 393 renal): 0.191 µM
- TGI (RXF 393 renal): 10.4 µM
- GI50 (SF-268 CNS): < 0.01 µM
- TGI (SF-268 CNS): 7.63 µM
- GI50 (SF-295 CNS): 11.5 µM
- TGI (SF-295 CNS): 25.4 µM
- GI50 (SF-539 CNS): 0.215 µM
- TGI (SF-539 CNS): 10.6 µM
- GI50 (SK-MEL-28 melanoma): < 0.01 µM
- TGI (SK-MEL-28 melanoma): < 0.01 µM
- GI50 (SK-MEL-5 melanoma): < 0.01 µM
- TGI (SK-MEL-5 melanoma): 10.7 µM
- GI50 (SK-OV-3 ovarian): 3.34 µM
- TGI (SK-OV-3 ovarian): 21.5 µM
- GI50 (SN12C renal): < 0.01 µM
- TGI (SN12C renal): 17.2 µM
- GI50 (SNB-19 CNS): 0.783 µM
- TGI (SNB-19 CNS): 34.5 µM
- GI50 (SNB-75 CNS): 0.32 µM
- TGI (SNB-75 CNS): 17.5 µM
- GI50 (SW-620 colon): < 0.01 µM
- TGI (SW-620 colon): 11.5 µM
- GI50 (T-47D breast): 1.53 µM
- TGI (T-47D breast): 22.6 µM
- GI50 (TK-10 renal): 1.14 µM
- TGI (TK-10 renal): 16.9 µM
- GI50 (U251 glioblastoma): 0.0603 µM
- TGI (U251 glioblastoma): 9.75 µM
- GI50 (UACC-257 melanoma): < 0.01 µM
- TGI (UACC-257 melanoma): < 0.01 µM
- GI50 (UACC-62 melanoma): < 0.01 µM
- TGI (UACC-62 melanoma): < 0.01 µM
- GI50 (UO-31 renal): 0.181 µM
- TGI (UO-31 renal): 1.77 µM
